Here are results for 28 compounds from patent US7872014B2, “Anaplastic lymphoma kinase modulators and methods of use” (Exelixis, Inc., priority 2003, dated 2011).

SMILES strings stand for the structures. Bounds are passed on as bounds.

The target of the experiment is T1, ALK (baculovirus expressed human ALK kinase domain F1098-K1410) (Homo sapiens, UniProt Q9UM73).
T1 construct: baculovirus expressed human ALK kinase domain F1098-K1410; made in house
T1 sequence (Q9UM73 1098-1410): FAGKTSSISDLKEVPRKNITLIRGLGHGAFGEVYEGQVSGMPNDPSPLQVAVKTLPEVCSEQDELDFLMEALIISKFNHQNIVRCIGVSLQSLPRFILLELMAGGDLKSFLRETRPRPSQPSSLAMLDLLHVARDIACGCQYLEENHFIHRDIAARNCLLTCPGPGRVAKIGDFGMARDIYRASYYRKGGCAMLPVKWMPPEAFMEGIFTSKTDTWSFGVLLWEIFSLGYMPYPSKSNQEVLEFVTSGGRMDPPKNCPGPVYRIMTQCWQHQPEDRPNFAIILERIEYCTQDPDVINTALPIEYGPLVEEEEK
The experiment is described as follows: Luciferase-Coupled Chemiluminescent Kinase assay (LCCA), ALK biochemical activity. The conditions noted are these: inhibition of ALK; mean values; 1 μM ATP, 4 μM poly-AEKY, 12 nM ALK, 2 hours ambient temperature. Put shortly: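 Luciferase-coupled readout of ATP remaining after reaction of 12 nM ALK kinase domain with 1 μM ATP and 4 μM poly-AEKY, Tris-HCl pH 7.5 buffer with MgCl2 and MnCl2. Incubated 2 h at ambient temperature; inhibition derived from ATP consumption across serial compound dilutions.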
A word on the IC50: it is the concentration at which inhibition is half-maximal. A higher IC50 goes with lower potency. `COc1c(OC[C@H](N)C(C)C)cc(F)c2c(-c3ccc(O)c(Cl)c3)nc3[nH]nc(C)c3c12` [Example 208, 4-[8-{[(2R)-2-amino-3-methylbutyl]oxy}-6-fluoro-1-methyl-9-(methyloxy)-3H-pyrazolo[3,4-c]isoquinolin-5-yl]-2-chlorophenol]: the IC50 is at most 99 nM.

In turn, `COc1c(OCCC2CCN(C)CC2)cc(F)c2c(-c3ccc(O)c(Cl)c3)nc3[nH]nc(C)c3c12` [Example 209, 2-chloro-4-(6-fluoro-1-methyl-9-(methyloxy)-8-{[2-(1-methylpiperidin-4-yl)ethyl]oxy}-3H-pyrazolo[3,4-c]isoquinolin-5-yl)phenol] registered a half-maximal inhibitory concentration (IC50) of at most 99 nM.

In turn, `CCN1CCC(COc2cc(F)c3c(-c4ccc(O)c(Cl)c4)nc4[nH]nc(C)c4c3c2OC)CC1` [Example 210, 2-chloro-4-[8-{[(1-ethylpiperidin-4-yl)methyl]oxy}-6-fluoro-1-methyl-9-(methyloxy)-3H-pyrazolo[3,4-c]isoquinolin-5-yl]phenol] returned a half-inhibitory concentration (IC50) of at most 99 nM.

The compound `Cc1n[nH]c2nc(-c3nnc(N)s3)c3c(F)cc(O)c(F)c3c12` [Example 212, 5-(5-amino-1,3,4-thiadiazol-2-yl)-6,9-difluoro-1-methyl-3H-pyrazolo[3,4-c]isoquinolin-8-ol] had a half-maximal inhibitory concentration (IC50) of 100 to 999 nM.

Take `COc1c(OC[C@H](N)C(C)(C)C)cc(F)c2c(-c3ccc(O)c(Cl)c3)nc3[nH]nc(C)c3c12` [Example 213, 4-[8-{[(2R)-2-amino-3,3-dimethylbutyl]oxy}-6-fluoro-1-methyl-9-(methyloxy)-3H-pyrazolo[3,4-c]isoquinolin-5-yl]-2-chlorophenol]: the IC50 was at most 99 nM.

In the case of `COc1c(OCCN2CCN(CC(C)C)CC2)cc(F)c2c(-c3ccc(O)c(Cl)c3)nc3[nH]nc(C)c3c12` [Example 214, 2-chloro-4-[6-fluoro-1-methyl-9-(methyloxy)-8-({2-[4-(2-methylpropyl)piperazin-1-yl]ethyl}oxy)-3H-pyrazolo[3,4-c]isoquinolin-5-yl]phenol], the IC50 is at most 99 nM.

`CCN1CC2CC1CN2CCOc1cc(F)c2c(-c3ccc(O)c(Cl)c3)nc3[nH]nc(C)c3c2c1OC` (stereo not shown) [Example 215, 2-chloro-4-[8-{[2-(5-ethyl-2,5-diazabicyclo[2.2.1]hept-2-yl)ethyl]oxy}-6-fluoro-1-methyl-9-(methyloxy)-3H-pyrazolo[3,4-c]isoquinolin-5-yl]phenol] yielded an IC50 of at most 99 nM.

Regarding `COc1c(OCCN2CCN(C(C)C)CC2)cc(F)c2c(-c3ccc(O)c(Cl)c3)nc3[nH]nc(C)c3c12` [Example 216, 2-chloro-4-[6-fluoro-1-methyl-8-({2-[4-(1-methylethyl)piperazin-1-yl]ethyl}oxy)-9-(methyloxy)-3H-pyrazolo[3,4-c]isoquinolin-5-yl]phenol], the concentration for half-maximal inhibition (IC50) was at most 99 nM.

`COc1c(OCCN2C3CCC2CC(N)C3)cc(F)c2c(-c3ccc(O)c(Cl)c3)nc3[nH]nc(C)c3c12` (stereo not shown) [Example 217, 4-[8-{[2-(3-amino-8-azabicyclo[3.2.1]oct-8-yl)ethyl]oxy}-6-fluoro-1-methyl-9-(methyloxy)-3H-pyrazolo[3,4-c]isoquinolin-5-yl]-2-chlorophenol] yielded an IC50 of at most 99 nM.

In turn, `CCN1CCC(CCOc2cc(F)c3c(-c4ccc(O)c(Cl)c4)nc4[nH]nc(C)c4c3c2OC)CC1` [Example 218, 2-chloro-4-[8-{[2-(1-ethylpiperidin-4-yl)ethyl]oxy}-6-fluoro-1-methyl-9-(methyloxy)-3H-pyrazolo[3,4-c]isoquinolin-5-yl]phenol] had an IC50 of at most 99 nM.

The compound `CCN(CC)CCOc1cc(F)c2c(-c3ccc(O)c(Cl)c3)nc3[nH]nc(C)c3c2c1OC` [Example 219, 2-chloro-4-[8-{[2-(diethylamino)ethyl]oxy}-6-fluoro-1-methyl-9-(methyloxy)-3H-pyrazolo[3,4-c]isoquinolin-5-yl]phenol] came in with a 50% inhibitory concentration (IC50) of at most 99 nM.

The compound `COc1c(OCCN2CCCC2)cc(F)c2c(-c3ccc(Cl)c(O)c3)nc3[nH]nc(C)c3c12` [Example 220, 2-chloro-5-{6-fluoro-1-methyl-9-(methyloxy)-8-[(2-pyrrolidin-1-ylethyl)oxy]-3H-pyrazolo[3,4-c]isoquinolin-5-yl}phenol] registered an IC50 of at most 99 nM.

As to `Cc1n[nH]c2nc(-c3cn(C)c(=N)s3)c3c(F)cc(O)c(F)c3c12` [Example 221, 6,9-difluoro-5-(2-imino-3-methyl-2,3-dihydro-1,3-thiazol-5-yl)-1-methyl-3H-pyrazolo[3,4-c]isoquinolin-8-ol], the IC50 is 1000 to 2000 nM.

As for `COc1c(OC2CC3CCC(C2)N3C)cc(F)c2c(-c3ccc(O)c(Cl)c3)nc3[nH]nc(C)c3c12` (stereo not shown) [Example 223, 2-chloro-4-[6-fluoro-1-methyl-8-[(8-methyl-8-azabicyclo[3.2.1]oct-3-yl)oxy]-9-(methyloxy)-3H-pyrazolo[3,4-c]isoquinolin-5-yl]phenol], the IC50 was at most 99 nM.

`COc1c(OCCCN2CCCC2)cc(F)c2c(-c3ccc(O)c(Cl)c3)nc3[nH]nc(C)c3c12` [Example 224, 2-chloro-4-{6-fluoro-1-methyl-9-(methyloxy)-8-[(3-pyrrolidin-1-ylpropyl)oxy]-3H-pyrazolo[3,4-c]isoquinolin-5-yl}phenol]: the IC50 was at most 99 nM.

`COc1c(OCCCN2CCCCC2)cc(F)c2c(-c3ccc(O)c(Cl)c3)nc3[nH]nc(C)c3c12` [Example 225, 2-chloro-4-{6-fluoro-1-methyl-9-(methyloxy)-8-[(3-piperidin-1-ylpropyl)oxy]-3H-pyrazolo[3,4-c]isoquinolin-5-yl}phenol]: the IC50 is at most 99 nM.

Turning to `COc1c(OCCCN2CCOCC2)cc(F)c2c(-c3ccc(O)c(Cl)c3)nc3[nH]nc(C)c3c12` [Example 226, 2-chloro-4-{6-fluoro-1-methyl-9-(methyloxy)-8-[(3-morpholin-4-ylpropyl)oxy]-3H-pyrazolo[3,4-c]isoquinolin-5-yl}phenol], the IC50 is at most 99 nM.

With `COc1c(OCCN(C)CCN(C)C)cc(F)c2c(-c3ccc(O)c(Cl)c3)nc3[nH]nc(C)c3c12` [Example 227, 2-chloro-4-[8-({2-[[2-(dimethylamino)ethyl](methyl)amino]ethyl}oxy)-6-fluoro-1-methyl-9-(methyloxy)-3H-pyrazolo[3,4-c]isoquinolin-5-yl]phenol], the IC50 was at most 99 nM.

Take `CCN(CC)CCN(C)CCOc1cc(F)c2c(-c3ccc(O)c(Cl)c3)nc3[nH]nc(C)c3c2c1OC` [Example 228, 2-chloro-4-[8-({2-[[2-(diethylamino)ethyl](methyl)amino]ethyl}oxy)-6-fluoro-1-methyl-9-(methyloxy)-3H-pyrazolo[3,4-c]isoquinolin-5-yl]phenol]: the IC50 was at most 99 nM.

`CCN(CCOc1cc(F)c2c(-c3ccc(O)c(Cl)c3)nc3[nH]nc(C)c3c2c1OC)CCN(C)C` [Example 229, 2-chloro-4-[8-({2-[[2-(dimethylamino)ethyl](ethyl)amino]ethyl}oxy)-6-fluoro-1-methyl-9-(methyloxy)-3H-pyrazolo[3,4-c]isoquinolin-5-yl]phenol] had an IC50 of at most 99 nM.

`COc1c(OCCN(CCCN(C)C)CCCN(C)C)cc(F)c2c(-c3ccc(O)c(Cl)c3)nc3[nH]nc(C)c3c12` [Example 230, 4-[8-[(2-{bis[3-(dimethylamino)propyl]amino}ethyl)oxy]-6-fluoro-1-methyl-9-(methyloxy)-3H-pyrazolo[3,4-c]isoquinolin-5-yl]-2-chlorophenol] showed a concentration for half-maximal inhibition (IC50) of at most 99 nM.

Consider `COc1c(OCCN(C)C2CCN(C)C2)cc(F)c2c(-c3ccc(O)c(Cl)c3)nc3[nH]nc(C)c3c12` (stereo not shown) [Example 231, 2-chloro-4-[6-fluoro-1-methyl-8-({2-[methyl(1-methylpyrrolidin-3-yl)amino]ethyl}oxy)-9-(methyloxy)-3H-pyrazolo[3,4-c]isoquinolin-5-yl]phenol], for which the IC50 was at most 99 nM.

The compound `COC[C@@H]1CCCN1CCOc1cc(F)c2c(-c3ccc(O)c(Cl)c3)nc3[nH]nc(C)c3c2c1OC` [Example 232, 2-chloro-4-{6-fluoro-1-methyl-9-(methyloxy)-8-[(2-{(2S)-2-[(methyloxy)methyl]pyrrolidin-1-yl}ethyl)oxy]-3H-pyrazolo[3,4-c]isoquinolin-5-yl}phenol] returned an IC50 of at most 99 nM.

The compound `COc1c(OCCN2CCC(N3CCCC3)CC2)cc(F)c2c(-c3ccc(O)c(Cl)c3)nc3[nH]nc(C)c3c12` [Example 233, 2-chloro-4-(6-fluoro-1-methyl-9-(methyloxy)-8-{[2-(4-pyrrolidin-1-ylpiperidin-1-yl)ethyl]oxy}-3H-pyrazolo[3,4-c]isoquinolin-5-yl)phenol] had an IC50 of at most 99 nM.

On to `COc1c(OCCN2CCN(C3CCCCC3)CC2)cc(F)c2c(-c3ccc(O)c(Cl)c3)nc3[nH]nc(C)c3c12` [Example 234, 2-chloro-4-[8-{[2-(4-cyclohexylpiperazin-1-yl)ethyl]oxy}-6-fluoro-1-methyl-9-(methyloxy)-3H-pyrazolo[3,4-c]isoquinolin-5-yl]phenol], for which the IC50 was at most 99 nM.

As for `COc1c(OCCN2CCN(CC(=O)NC(C)C)CC2)cc(F)c2c(-c3ccc(O)c(Cl)c3)nc3[nH]nc(C)c3c12` [Example 235, 2-[4-(2-{[5-(3-chloro-4-hydroxyphenyl)-6-fluoro-1-methyl-9-(methyloxy)-3H-pyrazolo[3,4-c]isoquinolin-8-yl]oxy}ethyl)piperazin-1-yl]-N-(1-methylethyl)acetamide], the IC50 is at most 99 nM.

For the compound `COc1c(OCCN2CCC(N3CCCCC3)CC2)cc(F)c2c(-c3ccc(O)c(Cl)c3)nc3[nH]nc(C)c3c12` [Example 236, 4-[8-{[2-(1,4′-bipiperidin-1′-yl)ethyl]oxy}-6-fluoro-1-methyl-9-(methyloxy)-3H-pyrazolo[3,4-c]isoquinolin-5-yl]-2-chlorophenol], the concentration for half-maximal inhibition (IC50) was at most 99 nM.

For `COc1c(OCCN2CCCN(C)CC2)cc(F)c2c(-c3ccc(O)c(Cl)c3)nc3[nH]nc(C)c3c12` [Example 237, 2-chloro-4-[6-fluoro-1-methyl-8-{[2-(4-methyl-1,4-diazepan-1-yl)ethyl]oxy}-9-(methyloxy)-3H-pyrazolo[3,4-c]isoquinolin-5-yl]phenol], the half-inhibitory concentration (IC50) is at most 99 nM.
